PubChem BioAssay (NCI)
Several values for one entry are separate records, joined by “and”; a condition that tells them apart may be missing. Equal values may be shown once.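 Briefly, cells in 96-well plates were exposed to five compound concentrations for 48 h, and endpoints were estimated by linear interpolation. GI50: concentration for 50% inhibition of growth. At the TGI there is no net growth.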

How the values were obtained:
Test in all cases: NCI-60 cell line screen, 48 h
HT29 colon = test system: HT29 colon
OVCAR-4 ovarian = test system: OVCAR-4 ovarian
CCRF-CEM leukemia = test system: CCRF-CEM leukemia
HL-60(TB) leukemia = test system: HL-60(TB) leukemia
NCI-H460 lung = test system: NCI-H460 lung
MALME-3M melanoma = test system: MALME-3M melanoma
SK-MEL-2 melanoma = test system: SK-MEL-2 melanoma
HOP-92 NSCLC = test system: HOP-92 NSCLC
MDA-MB-231 breast = test system: MDA-MB-231 breast
SF-295 CNS = test system: SF-295 CNS

Structure (SMILES)	TGI (HT29 colon) [µM]	TGI (OVCAR-4 ovarian)	TGI (CCRF-CEM leukemia) [µM]	TGI (HL-60(TB) leukemia)	TGI (NCI-H460 lung)	TGI (MALME-3M melanoma)	TGI (SK-MEL-2 melanoma)	TGI (HOP-92 NSCLC)	TGI (MDA-MB-231 breast) [µM]	TGI (SF-295 CNS)	GI50 (HT29 colon)	GI50 (OVCAR-4 ovarian)	GI50 (NCI-H460 lung)	GI50 (SF-295 CNS)	GI50 (MDA-MB-231 breast) [µM]	GI50 (SK-MEL-2 melanoma) [µM]	GI50 (HOP-92 NSCLC) [µM]	GI50 (CCRF-CEM leukemia) [µM]	GI50 (HL-60(TB) leukemia) [µM]	GI50 (MALME-3M melanoma) [µM]
CC(=O)O[C@@]1(C)[C@@H](C)C(=O)O[C@@H]2CCN3CC=C(COC(=O)[C@]1(C)O)[C@H]23	> 100	> 100 µM	> 100	> 100 µM	> 100 µM	> 100 µM	> 100 µM	> 100 µM	–	–	–	–	–	–	–	–	–	–	–	–
CC(C(N)C(=O)NC(C(=O)O)C1OC(n2ccc(=O)[nH]c2=O)C(O)C1O)C(O)c1ccc(O)cn1 (stereo unspecified)	> 100	–	> 100	> 100 µM	> 100 µM	–	> 100 µM	> 100 µM	> 100	> 100 µM	–	–	–	–	–	–	–	–	–	–
Cc1cccc2c1CCC21OC(=O)c2c1ccc1ccccc21 (stereo unspecified)	> 100	> 100 µM	> 100	66 µM	> 100 µM	75.5 µM	62.3 µM	–	–	> 100 µM	–	–	–	–	–	–	–	–	–	–
CC(C)=CCC/C(C)=C\CCC1(C)OC(=O)C2CC21 (stereo unspecified)	> 100	> 100 µM and 42.6 µM	–	49.9 µM and 26.6 µM	> 100 µM and 27 µM	> 100 µM	> 100 µM	–	> 100	> 100 µM	72.8 µM and 34.1 µM	> 100 µM and 19.5 µM	41.7 µM and 14 µM	> 100 µM and 49.8 µM	–	–	–	–	–	–
NC1=NN(c2ccccc2)C(=O)C1C(=O)C(=O)Nc1nccs1 (stereo unspecified)	> 100	> 100 µM	> 100	> 100 µM	> 100 µM	> 100 µM	> 100 µM	> 100 µM	–	> 100 µM	–	–	–	–	–	–	–	–	–	–
CSc1snc2sc3c(Cl)nnnc3c12	19.6	29.5 µM	11	–	32.8 µM	29.3 µM	27.7 µM	–	–	32 µM	–	–	–	–	–	–	–	–	–	–
COc1ccc2oc(C(=O)O)c3c2c1CCC3CCC(=O)O (stereo unspecified)	> 100	> 100 µM	> 100	> 100 µM	> 100 µM	> 100 µM	> 100 µM	> 100 µM	–	> 100 µM	–	–	–	–	–	–	–	–	–	–
CCOC(=O)C1=C(C)N(Cc2ccc(Cl)cc2Cl)C2(O)C=CC(=O)C3=C(O)c4ccccc4C(=O)C312 (stereo unspecified)	> 100	> 100 µM	–	–	43.2 µM	–	> 100 µM	5.48 µM	12.8	14.9 µM	5.04 µM	11.5 µM	5.55 µM	3.07 µM	3.96	38.4	1.23	–	–	–
NS(=O)(=O)c1ccc(N(/C=C/C(=O)C(F)(F)F)Cc2ccc(Cl)cc2)cc1	> 100	–	40.3	78.3 µM	> 100 µM	–	62 µM	40.9 µM	57.8	> 100 µM	43.9 µM	–	67.9 µM	35.1 µM	18.3	27.2	16.1	16	39	–
Cn1c(N)nc(=O)c2c1N(C1OC(CO)C(O)C1O)CN2Cc1ccccc1 (stereo unspecified)	> 100	> 100 µM	–	> 100 µM	> 100 µM	> 100 µM	> 100 µM	> 100 µM	–	> 100 µM	–	–	–	–	–	–	–	–	–	–
O=C1C2C(C(=O)N1c1ccccc1)C1([N+](=O)[O-])C=C3c4ccccc4N(C(=O)c4ccccc4)C32C2C(=O)N(c3ccccc3)C(=O)C21 (stereo unspecified)	> 100	–	> 100	> 100 µM	> 100 µM	> 100 µM	> 100 µM	> 100 µM	–	> 100 µM	–	–	–	–	–	–	–	–	–	–
CCc1cc(CCC(=O)Nc2ccccc2[N+](=O)[O-])[nH]c(=S)n1	> 100	–	> 100	> 100 µM	> 100 µM	–	> 100 µM	> 100 µM	–	> 100 µM	–	–	–	–	–	–	–	–	–	–
CCCCCCCCCNC(=O)/C=C/c1ccc(O)c(O)c1	> 100	> 100 µM	1.75	–	57.1 µM	31.4 µM	37.2 µM	17.3 µM	34.7	40.3 µM	17.9 µM	13.4 µM	14.1 µM	18.8 µM	13.2	17.3	2.52	0.0426	–	13.2
N#Cc1cc(S(=O)(=O)Nc2nnc(-c3ccccc3)c(-c3ccccc3)n2)c(SCc2ccccc2)cc1Cl	–	87 µM	> 100	44.8 µM	> 100 µM	–	> 100 µM	58.7 µM	83.8	46.5 µM	–	33.9 µM	38.7 µM	24.8 µM	23.3	41.8	18.4	7.06	19.9	–
O=C(Nc1cccc(Cl)c1)c1cccc(NC2=C(Cl)C(=O)N(Cc3ccccc3)C2=O)c1	> 100	> 100 µM	> 100	31.8 µM	> 100 µM	–	68.6 µM	> 100 µM	> 100	> 100 µM	55.7 µM	68.5 µM	37 µM	44.1 µM	4.54	26.7	16.1	7.2	12.6	–
COC(=O)C12OCC34C(CC5C(C)C6=CC(=O)OC6=CC5(C)C3C(O)C1O)OC(=O)C(O)C24 (stereo unspecified)	0.674	–	–	4.27 µM	0.716 µM and 1.18 µM	0.351 µM and 0.665 µM	0.944 µM and 2.43 µM	0.525 µM and 2.33 µM	–	0.956 µM and 6.03 µM	1.68 µM	0.155 µM	0.0616 µM	0.351 µM	–	0.313	0.146	–	–	0.0896
[N-]=[N+]=NCCCn1c2c(c3ccc([N+](=O)[O-])cc3c1=O)C(=O)c1cc(F)ccc1-2	> 35.2	> 95.7 µM	3.88	1.64 µM	2.34 µM	19.8 µM	> 75.1 µM	–	> 100	9.94 µM	1.24 µM	16.2 µM	0.132 µM	0.338 µM	30.3	9.24	–	0.432	0.202	3.46
C=C(C(=C)N1N=NC2C3CCC(C3)C21)N1N=NC2C3CCC(C3)C21 (stereo unspecified)	> 100	> 100 µM	> 100	54.6 µM	> 100 µM	> 100 µM	–	> 100 µM	–	> 100 µM	–	–	–	–	–	–	–	–	–	–
